Test results reported in US20160185797A1, “ALKYNYL ALCOHOLS AND METHODS OF USE” (Genentech, Inc., priority 2013, published 2016).

Experiments:
[1] = tested on: p52 (NF-kB2) nuclear translocation in HeLa cells; assay: p52 (NF-kB2) nuclear translocation assay in HeLa cells, anti-lymphotoxin beta receptor antibody stimulated (non-classical NF-kB signaling), high content imaging; assay type: cell-based; conditions: Homo sapiens, 100 ng/mL anti-lymphotoxin beta receptor antibody for 5 hours, read-out: p52 HeLa Transloc Assay (IC50)
In short: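 HeLa cells in 10% FBS medium were treated with compound (0.2% DMSO final) and stimulated with 100 ng/mL anti-lymphotoxin beta receptor antibody for 5 h. Fixed cells were immunostained for p52 and imaged with DRAQ5 nuclear stain. Translocation is the nuclear to cytoplasmic intensity ratio, […].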

[2] = biological target: T1, nuclear factor-kappa B (NF-kB)-inducing kinase (NIK) (Homo sapiens, UniProt Q99558); assay: NIK enzyme inhibition assay (Transcreener ADP fluorescence polarization, NIK ADP-FP); assay type: biochemical
T1 construct: made in house; host or cells: baculovirus-infected insect cells
Procedure: NIK Enzyme Inhibition Assay:
The ability of the nuclear factor-kappa B (NF-kB)-inducing kinase (NIK) to catalyze the hydrolysis of adenosine-5′-triphosphate (ATP) was monitored using the Transcreener ADP (adenosine-5′-diphosphate) assay (BellBrook Labs). […] Reactions were quenched by the addition of 20 mM 2,2′,2″,2′″-(ethane-1,2-diyldinitrilo)tetraacetic acid and 0.01% Brij 35. The tracer bound to the antibody was displaced by the ADP generated during the NIK reaction, which causes a decrease in fluorescence polarization that was measured by laser excitation at 633 nm with a Fluorescence Correlation Spectroscopy Plus reader (Evotec AG). Equilibrium dissociation constant (Ki) values for NIK inhibitors are calculated from plots of activity vs. inhibitor concentration using Morrison's quadratic equation that accounts for the potential of tight binding, and by also applying the conversion factor that accounted for competitive inhibition and the concentration of substrate used in the assay relative to its Michaelis constant (Km).

[3] = tested on: REL-A (p65) nuclear translocation in HeLa cells; assay: REL-A (p65) nuclear translocation assay in HeLa cells, TNF-α stimulated (classical NF-kB signaling), high content imaging; assay type: cell-based; conditions: Homo sapiens, HeLa, compound 4.5 h, then 10 ng/mL TNF-α for 30 minutes, read-out: REL-A HeLa Transloc Assay (IC50)
In short: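 HeLa cells in medium with 10% fetal bovine serum were exposed to compounds (0.2% DMSO final) for 4.5 hours, then stimulated with 10 ng/mL TNF-α for 30 minutes. After fixation in 4% paraformaldehyde and permeabilization with 0.1% Triton X-100, cells were stained with 400 ng/mL anti-REL-A (p65) antibody, an Alexa488 secondary and DRAQ5. Opera imaging quantified the nuclear-to-cytoplasmic signal ratio to give IC50.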

T1 sequence (Q99558 whole entry): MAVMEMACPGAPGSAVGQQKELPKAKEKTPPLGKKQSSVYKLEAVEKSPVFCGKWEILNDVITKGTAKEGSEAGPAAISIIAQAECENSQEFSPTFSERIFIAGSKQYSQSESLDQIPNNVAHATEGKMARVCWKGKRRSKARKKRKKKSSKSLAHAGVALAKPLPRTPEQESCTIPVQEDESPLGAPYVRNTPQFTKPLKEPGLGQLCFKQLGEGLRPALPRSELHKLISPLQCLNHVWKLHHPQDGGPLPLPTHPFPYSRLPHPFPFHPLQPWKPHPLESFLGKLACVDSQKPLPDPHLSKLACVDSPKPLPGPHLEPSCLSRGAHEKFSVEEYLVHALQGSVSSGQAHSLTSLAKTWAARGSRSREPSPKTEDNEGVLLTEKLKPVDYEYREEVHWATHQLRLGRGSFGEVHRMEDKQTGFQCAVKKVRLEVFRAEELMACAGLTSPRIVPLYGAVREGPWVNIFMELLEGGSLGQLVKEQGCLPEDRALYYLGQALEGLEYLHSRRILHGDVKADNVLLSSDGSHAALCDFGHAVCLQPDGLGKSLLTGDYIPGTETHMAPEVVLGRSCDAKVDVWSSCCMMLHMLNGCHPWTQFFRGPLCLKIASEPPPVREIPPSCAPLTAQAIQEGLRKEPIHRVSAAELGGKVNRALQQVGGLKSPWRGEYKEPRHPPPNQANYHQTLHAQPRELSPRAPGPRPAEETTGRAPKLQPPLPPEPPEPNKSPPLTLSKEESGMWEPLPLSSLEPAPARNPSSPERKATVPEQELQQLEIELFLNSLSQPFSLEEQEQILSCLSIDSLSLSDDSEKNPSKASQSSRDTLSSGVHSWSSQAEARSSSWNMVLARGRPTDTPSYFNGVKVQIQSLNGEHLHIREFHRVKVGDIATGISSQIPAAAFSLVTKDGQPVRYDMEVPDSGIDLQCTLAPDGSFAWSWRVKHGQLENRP

SMILES	IC50 [1] [nM]	Ki [2] [nM]	IC50 [3] [nM]
CN1CC[C@@](O)(C#Cc2cccc(-c3cc(-c4ccnn4C)cc(C(N)=O)n3)c2)C1=O [Example 144, 6-[3-[2-[(3R)-3-hydroxy-1-methyl-2-oxo-pyrrolidin-3-yl]ethynyl]phenyl]-4-(2-methylpyrazol-3-yl) pyridine-2-carboxamide]	199	0.69	≥ 2000
CN1CC[C@@](O)(C#Cc2cccc(-c3nc(C(N)=O)c4ccn(C)c4n3)c2)C1=O [Example 39, 2-[3-[2-[(3R)-3-hydroxy-1-methyl-2-oxo-pyrrolidin-3-yl]ethynyl]phenyl]-7-methyl-pyrrolo[2,3-d] pyrimidine-4-carboxamide]	20.9	0.13	7700
Cc1nnc([C@](C)(O)C#Cc2cccc(-c3nc(C(N)=O)c(N)cc3F)c2)o1 [Example 130, 3-amino-5-fluoro-6-[3-[(3R)-3-hydroxy-3-(5-methyl-1,3,4-oxadiazol-2-yl)but-1-ynyl]phenyl]pyridine-2-carboxamide]	≥ 2000	9.05	≥ 2000
Cc1ccn(-c2cc(C(N)=O)nc(-c3cccc(C#C[C@]4(O)CCN(C)C4=O)c3)n2)n1 [Example 166, 2-[3-[2-[(3R)-3-hydroxy-1-methyl-2-oxo-pyrrolidin-3-yl]ethynyl]phenyl]-6-(3-methylpyrazol-1-yl)pyrimidine-4-carboxamide]	59	< 0.05	> 2000
Cc1cn2cc(C(N)=O)nc(-c3cccc(C#C[C@]4(O)CCN(C)C4=O)c3)c2n1 [Example 76, 8-[3-[2-[(3R)-3-hydroxy-1-methyl-2-oxo-pyrrolidin-3-yl]ethynyl]phenyl]-2-methyl-imidazo[1,2-a] pyrazine-6-carboxamide]	101	0.86	≥ 20000
Cc1ccc(-c2cccc(C#C[C@]3(O)CCN(C)C3=O)c2)nc1C(N)=O [Example 133, 6-[3-[2-[(3R)-3-hydroxy-1-methyl-2-oxo-pyrrolidin-3-yl]ethynyl]phenyl]-3-methyl-pyridine-2-carboxamide]	160	0.18	≥ 2000
COCCN(C)c1cc(C(N)=O)nc(-c2cccc(C#C[C@]3(O)CCN(C)C3=O)c2)n1 [Example 10, 2-[3-[2-[(3R)-3-hydroxy-1-methyl-2-oxo-pyrrolidin-3-yl]ethynyl]phenyl]-6-[2-methoxyethyl(methyl)amino] pyrimidine-4-carboxamide]	266	1.17	> 20000
